IC50 data for 20 compounds are collected here from PubChem BioAssay AID504763 (Sanford-Burnham Center for Chemical Genomics, 2011).

What is called IC50 is the midpoint of a concentration-inhibition curve.

The source made the active and inactive calls. How the calls were made is not given here.

Sequence of Hexokinase-1 (Homo sapiens) (P19367 whole entry, looked up): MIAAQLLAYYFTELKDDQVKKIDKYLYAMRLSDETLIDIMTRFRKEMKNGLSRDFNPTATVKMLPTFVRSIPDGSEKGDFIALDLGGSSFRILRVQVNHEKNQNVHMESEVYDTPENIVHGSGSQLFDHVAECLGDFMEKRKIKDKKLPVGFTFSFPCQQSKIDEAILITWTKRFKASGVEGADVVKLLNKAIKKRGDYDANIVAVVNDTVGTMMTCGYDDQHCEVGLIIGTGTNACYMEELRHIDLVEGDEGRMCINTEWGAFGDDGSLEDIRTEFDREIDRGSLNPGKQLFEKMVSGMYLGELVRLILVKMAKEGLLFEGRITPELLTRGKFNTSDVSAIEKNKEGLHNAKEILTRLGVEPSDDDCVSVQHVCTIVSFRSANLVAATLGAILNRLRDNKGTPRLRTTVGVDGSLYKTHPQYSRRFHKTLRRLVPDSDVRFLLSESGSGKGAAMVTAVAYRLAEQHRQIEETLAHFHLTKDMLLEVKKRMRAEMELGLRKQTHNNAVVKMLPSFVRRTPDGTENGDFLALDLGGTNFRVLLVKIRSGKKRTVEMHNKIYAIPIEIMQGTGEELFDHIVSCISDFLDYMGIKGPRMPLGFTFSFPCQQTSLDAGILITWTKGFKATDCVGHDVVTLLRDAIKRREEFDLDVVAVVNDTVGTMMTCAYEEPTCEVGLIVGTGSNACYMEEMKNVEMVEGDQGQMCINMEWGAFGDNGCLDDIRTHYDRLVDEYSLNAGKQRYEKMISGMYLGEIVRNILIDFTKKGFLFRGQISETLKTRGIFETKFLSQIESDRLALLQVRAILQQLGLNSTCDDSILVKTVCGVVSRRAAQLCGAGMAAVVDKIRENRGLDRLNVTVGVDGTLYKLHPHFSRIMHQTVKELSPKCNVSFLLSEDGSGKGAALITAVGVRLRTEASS

This assay addresses Hexokinase-1 (Homo sapiens) (UniProt P19367). As to the kind of experiment: hexokinase 1 inhibition, dose response, selectivity assay for HKDC1 inhibitor project, biochemical (AID 504763). As to conditions: HK1 enzyme selectivity assay.
In the case of `Cc1nc2c(O)c3c(c(O)c2nc1C)C1C=CC3CC1`, the IC50 was 2.08 µM. As for `CC1COCC(C)N1C1=C(Cl)C(=O)c2ccccc2C1=O` (stereo not given), the figure is > 80 µM (inactive); as for `Cc1cccc2c(N=NC(=O)c3ccc(NS(=O)(=O)c4cccs4)cc3)c(O)[nH]c12`, “inactive”. For `COc1ccc(CN2C(=O)c3cccnc3C2O)cc1` (stereo not given) the value was > 80 µM (inactive). For `Oc1ccc(/C=N/Nc2ncc(Br)cn2)c(O)c1` the value was > 80 µM (inactive); for `C=CCn1c(SCC(=O)Nc2sc3c(c2C#N)CCC(C)C3)nc2cc(C(=O)O)ccc2c1=O` (stereo not given), > 80 µM (inactive); for `Cc1ccc(NC2c3ncccc3C(=O)N2c2ccccc2C)cc1C` (stereo not given), > 80 µM (inactive). With `COc1cc(/C=C(\C#N)c2nc3ccc(C)cc3[nH]2)cc([N+](=O)[O-])c1O`, the IC50 was 18 µM. In the case of `COCC(=O)OC1CCn2c1nc1c2C(=O)C(C)=C(NC(C)=O)C1=O` (stereo not given), the IC50 was 2.15 µM. For `CCCc1nc2c(c(=O)c3ccccc3n2C)c(=O)n1-c1ccc(F)cc1` the value was 6.47 µM; for `COC1(NS(=O)(=O)c2ccc(Br)cc2)C(C)=CC(=O)C=C1C`, > 80 µM (inactive); for `O=C(CNC(=O)/C=C/c1ccco1)N=Nc1c(O)[nH]c2ccccc12`, > 80 µM (inactive). As for `N#C/C(=C(/O)CCl)c1nc2c(s1)CCc1ccccc1-2`, the entry is “inactive”. As for `O=C(NCCc1ccccc1)c1cnn2c(C(F)F)cc(C3CC3)nc12`, the figure is 5.54 µM; as for `O=C1C(Cl)=C(NCCc2ccccc2)C(=O)c2ccccc21`, 18.5 µM; as for `O=[N+]([O-])c1ccc(NN=Cc2ccc(O)cc2O)nc1`, > 80 µM (inactive). In the case of `CC(NC1=CC(=O)c2cccnc2C1=O)C(O)c1ccccc1` (stereo not given), the IC50 result was “inactive”. As for `Cc1ccc(N=Cc2cc(Cc3ccccc3Cl)cc([N+](=O)[O-])c2O)c(O)c1`, the IC50 is > 80 µM (inactive).

For `Cc1cccc(C)c1Nc1nnc(SCc2cn3cccc(C)c3n2)s1`, the IC50 is > 80 µM (inactive).

Turning to `COCc1cc(C2C(C(=O)c3ccco3)=C(O)C(=O)N2CCOCCO)ccc1O` (stereo not given), the IC50 is > 80 µM (inactive).
